Here are results for six compounds from patent publication EP4782434A1, “N-SULFONYL CARBOXAMIDE COMPOUND, AND PREPARATION METHOD THEREFOR AND USE THEREOF” (Nutshell Therapeutics (Shanghai) Co., Ltd., priority 2023, dated 2025).

Molecules are shown by their SMILES. A value given as a limit tells only on which side of the number the result lay.

One assay addresses T1, Polθ ATPase (Homo sapiens, UniProt O75417).
T1 construct: purified truncated POLQ-N protein (aa 1-894, N-terminal 6-His tag); 6-His (N)
Briefly: Polθ ATPase activity assay (ADP-Glo Kinase Assay kit). The settings on record: truncated POLQ-N protein (aa 1-894) 1 nM, 50 nM ssDNA, 50 µM ATP. Type of assay: biochemical. The procedure: The inhibitory efficiency of the compounds of formula (I) against Polθ ATPase activity was determined using the ADP-Glo Kinase Assay kit (Promega, V9101). […] The starting (final) concentration was 100 nM, followed by a 3-fold serial dilution for a total of 10 concentration points in duplicate (n=2). 5 μL of purified […], N-terminal 6-His tag) was added to each well. After centrifugation at 1000 rpm for 1 minute, the plate was incubated at 25°C for 10 minutes. 5 μL of substrate reaction solution (containing ATP & ssDNA) was added to each well, and the reaction was carried out at 25°C for 60 minutes. 5 μL of ADP-Glo Reagent was added to each well. After centrifugation at 1000 rpm for 1 minute, the plate was incubated at 25°C for 40 minutes. 10 μL of detection solution was added to each well. After centrifugation at 1000 rpm for 1 minute, the plate was incubated at 25°C for 40 minutes. Luminescence signals were recorded using a microplate reader (BMG, PHERAstar FSX). The final reaction system contained 1 nM of POLQ-N enzyme; 50 nM of ssDNA ([NT]); 50 μM of ATP; and 1% DMSO. The inhibition percentage (%) of the compound at each concentration was calculated using the RFU values normalized against the control wells within each assay plate. Table 1: Inhibitory activity of compounds against Polθ ATPase
Background: In ADP-Glo the light output rises with the ADP produced.

Assay [1] concerns Theta-mediated end joining (TMEJ) process in HEK293T cells. Briefly: TMEJ reporter assay (NanoGlo luciferase). The settings on record: Homo sapiens, HEK-293T, HEK293T cells electroporated with TMEJ substrate, 24 hours. It is filed as cell-based. The procedure:
The inhibitory effect of the compounds on the Theta-mediated end joining (TMEJ) process was evaluated.
(1) HEK293T cells were cultured in DMEM supplemented with 10% heat-inactivated fetal bovine serum (FBS) and 1% penicillin-streptomycin (PS). (2) Prior to startup, the Neon transfection system was disinfected, and E2 and R buffers were equilibrated to room temperature. (3) Culture medium without antibiotics was pre-warmed. (4) Cells in the flask reaching 80-90% confluency were trypsinized, neutralized with culture medium, centrifuged, and counted. (5) For transfection using a 100 µL electroporation tip, 2 × 10^6 cells were taken, washed once with DPBS (without Mg^2+ and Ca^2+), centrifuged at 1000 rpm for 5 min, and the supernatant was discarded. The number of cells and volume may be increased as required. (6) The Neon system was set up; a Neon tube was inserted into the Neon pipette and E2 buffer was added. (7) 10 µg of TMEJ substrate was added to 100 µL of R solution; the volume may be increased as required. (8) Cells were resuspended in DNA buffer, and electroporation was initiated according to the following parameters:
(9) The cells were loaded into antibiotic-free culture medium and mixed gently. (10) Steps (8)-(9) were repeated as necessary, and cells were seeded into 384-well plates at a density of 40,000 cells/well in 40 µL of culture medium. (11) The plates were incubated in a humidified CO2 incubator at 37°C for 24 hours. (12) NanoGlo reagent was warmed to room temperature, and NanoGlo buffer was mixed with the substrate at a ratio of 50:1. (13) The cell culture plates were equilibrated at room temperature for 10 minutes. (14) 40 µL of NanoGlo substrate buffer was added to each well, followed by shaking at 300 rpm for 3 minutes protected from light. (15) Signals were read via a BMG PHERAstar FSX.
Background: A reporter such as luciferase makes a cellular process visible.

In the next assay the test system is DLD-1 BRCA2-/- cells. Put plainly: DLD-1 BRCA2-/- cell proliferation assay (CellTiter-Glo, 10 days incubation). It is filed as cell-based. To be noted: Homo sapiens, 240 h, DLD-1 BRCA2-/- cell line, total incubation period of 10 days, read-out: DLD1 BRCA2^-/- IC50. The text has this: The anti-proliferative effect of the compounds on the human colorectal adenocarcinoma cell line DLD-1 BRCA2^-/- method.
• DLD-1 (purchased from ATCC, Cat. No.: CCL-221, Batch No.: 70033255); • RPMI1640 (purchased from Invitrogen, Cat. No.: 11875-085); • 0.25% Trypsin-EDTA (purchased from Invitrogen, Cat. No.: 25200-072); • Penicillin-Streptomycin solution (purchased from Hyclone, Cat. No.: SV30010); • FBS (purchased from BI, Cat. No.: 04-002-1A); • DMSO (purchased from Sigma, Cat. No.: D4540-1L); • 96-well plate (purchased from Corning, Cat. No.: CLS3903); • CellTiter-Glo reagent (purchased from Promega, Cat. No.: G7558).
The anti-proliferative effect of the compounds on a human colorectal adenocarcinoma cell line was evaluated using an ATP quantification method, wherein the measured activity correlates well with the number of viable cells. The genetically edited cell line DLD-1 BRCA2^-/- was cultured in RPMI 1640 medium (Invitrogen, 11875-085) supplemented with 10% (v/v) fetal bovine serum (BI, 04-002-1A). The cell line was cultured according to the standard instructions of the American Type Culture Collection (ATCC) and identified via short tandem repeat (STR) genotyping.
In the proliferation assay, cells were harvested and resuspended in cell culture medium. Cell density was determined using a cell counter. An appropriate volume of cell suspension was aspirated from the centrifuge tube to prepare a plating working solution (150 cells/100 µL for the DLD-1 BRCA2^-/- cell line). 100 µL of the cell suspension was seeded into each well of a 96-well plate (Corning, 3603) and incubated overnight in an incubator. The diluted test compound solutions were added to the wells. On the fourth and seventh days of compound incubation, the medium was replaced with fresh culture medium, and the compounds were re-administered, for a total incubation period of 10 days. Following incubation, the cell culture plates were removed and equilibrated to room temperature. 100 µL of CellTiter-Glo (Promega, G7558) was added to each well, and the plate was incubated at room temperature for 30 minutes. Data were read using a microplate reader (PerkinElmer, Enspire) in 96-well luminescence mode. Data analysis, curve fitting, and reporting were performed using the dose-response one-site 205 model of IDBS XL fit. Table 2: Proliferation inhibitory activity of compounds against DLD-1 BRCA2-/- cells
For orientation: In ATP-based viability assays light output follows the ATP content of the culture.

T1 sequence (O75417 1-894): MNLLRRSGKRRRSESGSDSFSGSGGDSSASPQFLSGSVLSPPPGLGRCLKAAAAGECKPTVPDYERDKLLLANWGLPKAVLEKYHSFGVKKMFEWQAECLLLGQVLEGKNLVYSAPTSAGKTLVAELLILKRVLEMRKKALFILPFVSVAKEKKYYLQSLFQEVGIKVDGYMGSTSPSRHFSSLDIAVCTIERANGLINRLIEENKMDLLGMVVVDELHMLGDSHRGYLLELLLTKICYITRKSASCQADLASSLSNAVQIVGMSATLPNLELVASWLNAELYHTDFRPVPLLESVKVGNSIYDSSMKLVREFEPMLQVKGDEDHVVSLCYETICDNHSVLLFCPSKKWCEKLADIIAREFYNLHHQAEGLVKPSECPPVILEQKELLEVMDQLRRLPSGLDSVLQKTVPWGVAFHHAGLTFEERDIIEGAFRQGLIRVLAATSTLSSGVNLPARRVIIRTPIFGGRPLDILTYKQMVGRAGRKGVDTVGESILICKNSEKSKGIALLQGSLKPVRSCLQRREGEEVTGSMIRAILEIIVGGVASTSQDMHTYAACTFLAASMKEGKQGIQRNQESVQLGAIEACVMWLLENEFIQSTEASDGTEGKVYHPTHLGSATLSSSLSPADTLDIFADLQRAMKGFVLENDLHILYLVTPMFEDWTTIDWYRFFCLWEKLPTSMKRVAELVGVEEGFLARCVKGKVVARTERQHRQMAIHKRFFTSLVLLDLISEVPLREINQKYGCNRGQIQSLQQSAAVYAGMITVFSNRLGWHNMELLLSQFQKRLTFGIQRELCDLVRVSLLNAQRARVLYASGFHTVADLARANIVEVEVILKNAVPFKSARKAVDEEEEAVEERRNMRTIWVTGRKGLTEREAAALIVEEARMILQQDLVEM

Turning to `COc1cnc(C(F)F)cc1-c1cc(C)ccc1C(=O)NS(=O)(=O)Cc1ccc([C@@H](C)OC)cc1` [cpd-8, (R)-2-(2-(Difluoromethyl)-5-methoxypyridin-4-yl)-N-((4-(1-methoxyethyl)benzyl)sulfonyl)-4-methylbenzamide], the IC50 is not above 2 nM on Polθ ATPase (class symbols), 0.72 nM on Polθ ATPase (specific values), 2 nM in assay [1] and 57 nM in the assay on DLD-1 BRCA2-/- cells.

Consider `COc1ccc(C(F)F)cc1-c1cc(CC(=O)N(C)C)ccc1C(=O)NS(=O)(=O)Cc1ccc(C(C)C)cc1` [cpd-11, 5'-(Difluoromethyl)-5-(2-(dimethylamino)-2-oxoethyl)-N-((4-isopropylbenzyl)sulfonyl)-2'-methoxy-[1,1'-biphenyl]-2-carboxamide], for which the IC50 against Polθ ATPase (class symbols) was not above 2 nM; against Polθ ATPase (specific values), 0.53 nM; in assay [1], 2 nM; in the assay on DLD-1 BRCA2-/- cells, 99 nM.

Regarding `[2H]C([2H])([2H])Oc1cnc(C(F)F)cc1-c1cc(C([2H])([2H])[2H])ccc1C(=O)NS(=O)(=O)Cc1ccc([C@H](C)OC([2H])([2H])[2H])cc1` [cpd-18, (S)-2-(2-(Difluoromethyl)-5-(methoxy-d3)pyridin-4-yl)-N-((4-(1-(methoxy-d3)ethyl)benzyl)sulfonyl)-4-(methyl-d3)benzamide], the IC50 against Polθ ATPase (class symbols) is not above 2 nM; at Polθ ATPase (specific values), 1.4 nM; in assay [1], 1.3 nM; in the assay on DLD-1 BRCA2-/- cells it was 17 nM.

Turning to `[2H]C([2H])([2H])O[C@@H](C)c1ccc(CS(=O)(=O)NC(=O)c2ccc(C)cc2-c2cc(C(F)F)ncc2OC)cc1` [cpd-19, (S)-2-(2-(Difluoromethyl)-5-methoxypyridin-4-yl)-N-((4-(1-(methoxy-d3)ethyl)benzyl)sulfonyl)-4-methylbenzamide], the IC50 was not above 2 nM against Polθ ATPase (class symbols), 0.45 nM against Polθ ATPase (specific values), 2 nM in assay [1] and 21 nM in the assay on DLD-1 BRCA2-/- cells.

For `[2H]C([2H])([2H])O[C@@H](C)c1ccc(CS(=O)(=O)NC(=O)c2ccc(C([2H])([2H])[2H])cc2-c2cc(C(F)F)c(F)cc2OC)cc1` [cpd-21, (S)-5'-(Difluoromethyl)-4'-fluoro-2'-methoxy-N-((4-(1-(methoxy-d3)ethyl)benzyl)sulfonyl)-5-(methyl-d3)-[1,1'-biphenyl]-2-carboxamide], the IC50 is not above 2 nM on Polθ ATPase (class symbols), 1.5 nM on Polθ ATPase (specific values), 2.3 nM in assay [1] and 5.2 nM with DLD-1 BRCA2-/- cells.

Regarding `[2H]c1c([2H])c([C@H](C)OC([2H])([2H])[2H])c([2H])c([2H])c1CS(=O)(=O)NC(=O)c1ccc(C([2H])([2H])[2H])cc1-c1cc(Cl)ncc1OC` [cpd-22, (S)-2-(2-Chloro-5-methoxypyridin-4-yl)-N-(4-(1-(methoxy-d3)ethyl)(phenyl-2,3,5,6-d4)methylsulfonyl)-4-(methyl-d3)benzamide], the IC50 at Polθ ATPase (class symbols) is not above 2 nM; at Polθ ATPase (specific values) it was 1.1 nM; in assay [1], 1.3 nM; in the assay on DLD-1 BRCA2-/- cells it was 48 nM.
